From US10179929B2, “Water-soluble activatable molecular probes, intermediates for the synthesis thereof and associated detection methods” (ECOLE NORMALE SUPERIEURE DE LYON, priority 2014, dated 2019)

Assay: Evaluation of hydrosolubility: presence or absence of precipitate in buffered solutions
Conditions: for hydrosolubility (presence or absence of precipitate): diluted from DMSO stock solution
Description: The hydrosolubility of the compounds was evaluated as a function of the presence or absence of precipitate in buffered solutions of the compounds in question at different concentrations.
These stock solutions were then diluted in a commercial PBS buffer in order to obtain a range of final concentrations between 1 mM and 50 μM. A compound was declared to be insoluble if a precipitate appeared and persisted after dilution.

For `Cc1cc(=O)oc2cc(NC(=O)[C@@H](N)CC(C)C)ccc12` [AMC-Leu, reference compound], which “appearance of stock solution in DMSO” value (100 mM in DMSO) is on record?
The value was “cloudy solution”.

Which results are given for `Cc1cc(=O)oc2cc(OC(=O)N3CCNCC3CNC(=O)Cc3ccccc3)ccc12` (centres unmarked) [Compound 12, 4-methyl-2-oxo-2H-chromen-7-yl 2-((2-phenylacetamido)methyl)piperazine-1-carboxylate]?
hydrosolubility (presence or absence of precipitate) (50 μM in PBS buffer): soluble; hydrosolubility (presence or absence of precipitate) (100 μM in PBS buffer): soluble; hydrosolubility (presence or absence of precipitate) (250 μM in PBS buffer): soluble; hydrosolubility (presence or absence of precipitate) (500 μM in PBS buffer): soluble; hydrosolubility (presence or absence of precipitate) (1 mM in PBS buffer): soluble

Which “hydrosolubility (presence or absence of precipitate)” value (“hydrosolubility” for short) (50 μM in PBS buffer) does the source give for `Cc1cc(=O)oc2cc(OC(=O)N3CCCCC3CNC(=O)Cc3ccccc3)ccc12` (centres unmarked) [Compound 15, 4-methyl-2-oxo-2H-chromen-7-yl 2-((2-phenylacetamido)methyl)piperidine-1-carboxylate, reference compound] here?
Its value is “insoluble”.

What about the “hydrosolubility” value (100 μM in PBS buffer) of the same molecule?
Its value is “insoluble”.

What about the “hydrosolubility” value (250 μM in PBS buffer) of the same molecule?
The value was “insoluble”.

And the “hydrosolubility” value (500 μM in PBS buffer)?
Its value is “insoluble”.

And the “hydrosolubility” value (1 mM in PBS buffer)?
Its value is “insoluble”.

For `CCCCCCCC(=O)OCC1CNCCN1C(=O)Oc1ccc2c(C)cc(=O)oc2c1` (centres unmarked) [Compound 21, 4-methyl-2-oxo-2H-chromen-7-yl 2-((octanoyloxy)methyl)piperazine-1-carboxylate], which “hydrosolubility” value (50 μM in PBS buffer) is on record?
Its value is “soluble”.

What about the “hydrosolubility” value (100 μM in PBS buffer) of the same molecule?
Its value is “soluble”.

And the “hydrosolubility” value (250 μM in PBS buffer)?
Its value is “soluble”.

What about the “hydrosolubility” value (500 μM in PBS buffer) of the same molecule?
The value was “insoluble”.

And the “hydrosolubility” value (1 mM in PBS buffer)?
The value was “insoluble”.

Which “hydrosolubility” value (50 μM in PBS buffer) does the source give for `CCCCCCCC(=O)OCC1CN(CCCCS(=O)(=O)O)CCN1C(=O)Oc1ccc2c(C)cc(=O)oc2c1` (centres unmarked) [Compound 22, 4-(4-(((4-methyl-2-oxo-2H-chromen-7-yl)oxy)carbonyl)-3-((octanoyloxy)methyl)piperazin-1-yl)butane-1-sulfonic Acid] here?
Its value is “soluble”.

What about the “hydrosolubility” value (100 μM in PBS buffer) of the same molecule?
Its value is “soluble”.

What about the “hydrosolubility” value (250 μM in PBS buffer) of the same molecule?
Its value is “soluble”.

What about the “hydrosolubility” value (500 μM in PBS buffer) of the same molecule?
Its value is “soluble”.

What about the “hydrosolubility” value (1 mM in PBS buffer) of the same molecule?
Its value is “soluble”.

For `CCCCCCCC(=O)OCC1CCCCN1C(=O)Oc1ccc2c(C)cc(=O)oc2c1` (centres unmarked) [Compound 27, 4-methyl-2-oxo-2H-chromen-7-yl 2-((octanoyloxy)methyl)piperidine-1-carboxylate, reference compound], which “hydrosolubility” value (50 μM in PBS buffer) is on record?
Its value is “soluble”.

And the “hydrosolubility” value (100 μM in PBS buffer)?
The value was “soluble”.

And the “hydrosolubility” value (250 μM in PBS buffer)?
The value was “insoluble”.

What about the “hydrosolubility” value (500 μM in PBS buffer) of the same molecule?
Its value is “insoluble”.

And the “hydrosolubility” value (1 mM in PBS buffer)?
Its value is “insoluble”.

Which “hydrosolubility” value (50 μM in PBS buffer) does the source give for `COCCOCCOCCn1cc(CCC(=O)N2CCN(C(=O)Oc3ccc4c(C)cc(=O)oc4c3)C(CNC(=O)Cc3ccccc3)C2)nn1` (centres unmarked) [Compound 31, 4-methyl-2-oxo-2H-chromen-7-yl 4-(3-(1-(2-(2-(2-methoxyethoxy)ethoxy)ethyl)-1H-1,2,3-triazol-4-yl)propanoyl)-2-((2-phenylacetamido)methyl)piperazine-1-carboxylate] here?
The value was “soluble”.

And the “hydrosolubility” value (100 μM in PBS buffer)?
Its value is “soluble”.

What about the “hydrosolubility” value (250 μM in PBS buffer) of the same molecule?
The value was “soluble”.

What about the “hydrosolubility” value (500 μM in PBS buffer) of the same molecule?
The value was “soluble”.

And the “hydrosolubility” value (1 mM in PBS buffer)?
The value was “soluble”.

For `COCCOCCOCCn1cc(CCC(=O)N2CCN(C(=O)Oc3ccc([N+](=O)[O-])cc3)C(CNC(=O)Cc3ccccc3)C2)nn1` (centres unmarked) [Compound 36, 4-nitrophenyl 4-(3-(1-(2-(2-(2-methoxyethoxy)ethoxy)ethyl)-1H-1,2,3-triazol-4-yl)propanoyl)-2-((2-phenylacetamido)methyl)piperazine-1-carboxylate], which “hydrosolubility” value (50 μM in PBS buffer) is on record?
Its value is “soluble”.

And the “hydrosolubility” value (100 μM in PBS buffer)?
The value was “soluble”.

And the “hydrosolubility” value (250 μM in PBS buffer)?
The value was “soluble”.

And the “hydrosolubility” value (500 μM in PBS buffer)?
Its value is “soluble”.

And the “hydrosolubility” value (1 mM in PBS buffer)?
Its value is “soluble”.

For `COCCOCCOCCn1cc(CCC(=O)N2CCN(C(=O)Oc3ccc(Cl)cc3-c3nc4ccc(Cl)cc4c(=O)[nH]3)C(CNC(=O)Cc3ccccc3)C2)nn1` (centres unmarked) [Compound 39, 4-chloro-2-(6-chloro-4-oxo-3,4-dihydroquinazolin-2-yl)phenyl 4-(3-(1-(2-(2-(2-methoxyethoxy)ethoxy)ethyl)-1H-1,2,3-triazol-4-yl)propanoyl)-2-((2-phenylacetamido)methyl)piperazine-1-carboxylate], which “hydrosolubility” value (50 μM in PBS buffer) is on record?
The value was “soluble”.

And the “hydrosolubility” value (100 μM in PBS buffer)?
The value was “soluble”.

And the “hydrosolubility” value (250 μM in PBS buffer)?
The value was “soluble”.

And the “hydrosolubility” value (500 μM in PBS buffer)?
Its value is “insoluble”.

And the “hydrosolubility” value (1 mM in PBS buffer)?
Its value is “insoluble”.
